# Assays:
# [1] = system: PANC-1 cells; conditions: 10 μM; cited from earlier work
# [2] = system: MIA PaCa-2 cells; test: MTT cell viability assay, MIA PaCa-2; format: cell-based, human; conditions: for EC50: Homo sapiens, MIA PaCa-2, 72 h, 72 h, MTT
# Method: (§1) Cell viability was tested using MTT (3-(4,5-dimethylthiazol-2-yl)-2,5-diphenyltetrazolium bromide; Sigma-Aldrich Co.) assay, as described previously Briefly, MIA PaCa-2 and PANC-1 cells were seeded in 96-well plates (Corning, NY, USA) in a volume of 100 μL (4000 cells/well). After 24 h incubation, the cells were treated with sunitinib and its derivatives. Only the medium without cells was used as a positive control, and the medium with 0.5% DMSO (Sigma-Aldrich Co.) served as a negative control. After 72 h the cells were incubated with the 0.5 mg/mL of MTT solution for the next 4 h. The coloured formazan product was dissolved in 100 μL DMSO. The absorbance was measured spectrophotometrically at wavelengths 570 and 630 nm. […] When determining the EC50 values of the compounds under hypoxic conditions, the growth medium was supplemented with 100 µM of CoCl2 solution (97%, Alfa Aesar, MA, USA).
# [3] = system: PANC-1 cells; test: MTT cell viability assay, PANC-1; format: cell-based, human; conditions: for EC50: Homo sapiens, PANC-1, 72 h, 72 h, MTT
# Method: as §1
# [4] = system: human fibroblasts; test: MTT cell viability, human fibroblasts (selectivity); format: cell-based
# [5] = system: MIA PaCa-2 and PANC-1 cells; test: MTT cell viability, both pancreatic cancer cell lines; format: cell-based, human; conditions: for reduction of viability compared to sunitinib / reduction of cell viability: 1 µM; for reduction of viability compared to sunitinib: 72 h, both cancer cell lines; for reduction of cell viability: 72 h of incubation, at least one cell line; for activity on cell viability, comparison between cell lines: EC50 comparison MIA PaCa-2 vs PANC-1; for activity on cell viability, hypoxia compared with normoxia: EC50 comparison
# Method: as §1
# [6] = system: MIA PaCa-2 cells; test: Clonogenic assay, MIA PaCa-2; format: cell-based, human; conditions: for number and area of colonies: MIA PaCa-2, higher concentration (90% of EC50), normoxia and hypoxia
# Method: (§2) Compound effect on cell colony formation and growth was established by clonogenic assay, as previously published. […] Cells were incubated in a humidified atmosphere containing 5% CO2 at 37 °C and grown for 8 days. After incubation, the cells were rinsed with PBS and fixed with 10% formaldehyde, methanol-free (ThermoFisher Scientific, Waltham, MA, USA) solution for 20 min. Then the cells were rinsed with PBS two more times, and cell colonies were stained with 0.1% aqueous crystal violet solution (Sigma-Aldrich Co.) for 20 min, followed by rinses with sterile deionized water to remove the excess dye. Photos of colonies were taken using the G:BOX gel documentation system (Syngene International Ltd., Bengaluru, India) and Genesys software (Syngene International Ltd.). The number of colonies and their area were calculated using GeneTools colony and cell counting software (Syngene International Ltd.) according to the manufacturer’s instructions. Cell colony area and number in control groups were normalized to 100%. The percentage of drug-treated colony area and number were compared to the control.
# [7] = system: PANC-1 cells; test: Clonogenic assay, PANC-1; format: cell-based, human; conditions: for PANC-1 cell colony formation (number) compared to the control: 90% of EC50, normoxia; for number and area of colonies: PANC-1, higher concentration (90% of EC50), normoxia and hypoxia
# Method: as §2
# [8] = system: MIA PaCa-2 cells; test: 'Wound healing' migration assay, MIA PaCa-2; format: cell-based, human; conditions: for inhibition of migration, hypoxia compared with normoxia: MIA PaCa-2
# Method: (§3) Cell migration was tested by the ‘wound’ healing assay, as described elsewhere. Briefly, MIA PaCa-2 and PANC-1 cells were seeded into 24-well plates (Corning). MIA PaCa-2 at a density of 80,000 cells/well and PANC-1 at a density of 60,000 cells/well in 500 μL of medium and incubated in a humidified atmosphere containing 5% CO2 at 37 °C for 1 day. Then the monolayers were scratched with a sterile 100 μL pipette plastic tip in the centre of the well. The old cell medium is aspirated, the wells are rinsed with 400 μL phosphate-buffered saline (PBS, Gibco). […] Photos of ‘wounds’ were taken every 24 h for 3 days and the compound effect was evaluated by measuring the size of the “wound” area. Images were analysed by TScratch software (CSE Lab, Zurich, Switzerland).
# [9] = system: PANC-1 cells; test: 'Wound healing' migration assay, PANC-1; format: cell-based, human; conditions: for inhibition of migration, hypoxia compared with normoxia: PANC-1; for 'wound' area compared to the control: PANC-1, 0.35 μM
# Method: as §3
# [10] = system: PANC-1 cells; parameters: method as in PMID 15202007; conditions: 10 μM; cited from earlier work
# [11] = system: PANC-1 cell monolayer; conditions: PANC-1, 1 μM, 24 h; cited from earlier work
# [12] = MIA PaCa-2, hypoxia (100 µM CoCl2)
# [13] = normoxia, higher concentrations (90% of EC50)
structure (smiles),measurement,setting,value
Cc1nc(Nc2ncc(C(=O)Nc3c(C)cccc3Cl)s2)cc(N2CCN(CCO)CC2)n1 [Dasatinib],number of PANC-1 cell colonies,[1],significantly reduced
COc1ccc(C2CC(c3ccc4ccccc4c3)=NN2C2=NC(=O)/C(=C3/C(=O)Nc4ccc(Cl)cc43)S2)cc1 (stereo not drawn) [EMAC4001],EC50,[2]; [12],100 ± 13 nM
same,EC50,"[2]; MIA PaCa-2, normoxia",113 ± 8 nM
same,times more active than sunitinib,"[2]; MIA PaCa-2, hypoxia",35 times
same,times more active than sunitinib,"[2]; MIA PaCa-2, normoxia",24 times
same,EC50,"[3]; PANC-1, hypoxia (100 µM CoCl2)",80 ± 5 nM
same,EC50,"[3]; PANC-1, normoxia",98 ± 3 nM
same,times more active than sunitinib,"[3]; PANC-1, hypoxia",47 times
same,times more active than sunitinib,"[3]; PANC-1, normoxia",36 times
same,selectivity towards cancer cells compared to human fibroblasts,[4]; MIA PaCa-2 and PANC-1 vs fibroblasts,most selective compound
same,reduction of viability compared to sunitinib,[5],statistically significantly stronger reduced
same,reduction of cell viability,[5],90%
same,"activity on cell viability, comparison between cell lines",[5],more active in the PANC-1 cell line
same,"MIA PaCa-2 cell colony growth, hypoxia compared with normoxia",[6],stronger effect on the MIA PaCa-2 cell colony growth under hypoxia than normoxia
same,MIA PaCa-2 cell colony formation,"[6]; 90% of EC50, normoxia",statistically significantly inhibited
same,number and size of cell colonies compared to sunitinib,"[6]; MIA PaCa-2, 90% of EC50, normoxia and hypoxia",less of MIA PaCa-2 and PANC-1 cell colonies and they were smaller
same,number and area of colonies,[6],significantly reduced the number and area of colonies
same,PANC-1 cell colony formation (number) compared to the control,[7],inhibited the colony formation of PANC-1 cells
same,number and size of cell colonies compared to sunitinib,"[7]; PANC-1, 90% of EC50, normoxia and hypoxia",less of MIA PaCa-2 and PANC-1 cell colonies and they were smaller
same,number and area of colonies,[7],significantly reduced the number and area of colonies
same,"inhibition of migration, hypoxia compared with normoxia",[8],more than in normoxia
same,cell migration,[8]; [13],inhibited cell migration
same,"inhibition of migration, hypoxia compared with normoxia",[9],the effect was the opposite
COc1ccc(C2CC(c3ccc4ccccc4c3)=NN2C2=NC(=O)/C(=C3/C(=O)Nc4ccc(I)cc43)S2)cc1 (stereo not drawn) [EMAC4006],reduction of viability compared to sunitinib,[5],statistically significantly stronger reduced
same,reduction of cell viability,[5],90%
same,"activity on cell viability, comparison between cell lines",[5],inhibited more efficiently the cell viability of the MIA PaCa-2 cell line
same,MIA PaCa-2 cell colony formation,"[6]; 90% of EC50, normoxia",statistically significantly inhibited
same,PANC-1 cell colony formation (number) compared to the control,[7],inhibited the colony formation of PANC-1 cells
same,"inhibition of migration, hypoxia compared with normoxia",[8],less than under normoxia
same,cell migration,[8]; [13],inhibited cell migration
same,"inhibition of migration, hypoxia compared with normoxia",[9],stronger under hypoxia than normoxia
COc1ccc(C2CC(c3ccc4ccccc4c3)=NN2C2=NC(=O)/C(=C3/C(=O)Nc4ccc(OC)cc43)S2)cc1 (stereo not drawn) [EMAC4007],effect on viability of non-cancerous cells (human fibroblasts),[4],significantly reduce the viability of non-cancerous cells
same,reduction of viability compared to sunitinib,[5],statistically significantly stronger reduced
same,reduction of cell viability,[5],90%
COc1ccc(C2CC(c3ccc4ccccc4c3)=NN2C2=NC(=O)/C(=C3/C(=O)Nc4ccc(C)cc43)S2)cc1 (stereo not drawn) [EMAC4008],reduction of viability compared to sunitinib,[5],statistically significantly stronger reduced
same,reduction of cell viability,[5],90%
same,"activity on cell viability, hypoxia compared with normoxia",[5],more active against both cell lines under hypoxia conditions
same,"activity on cell viability, comparison between cell lines",[5],more active in the PANC-1 cell line
same,"MIA PaCa-2 cell colony growth, hypoxia compared with normoxia",[6],stronger effect on the MIA PaCa-2 cell colony growth under hypoxia than normoxia
same,"inhibition of migration, hypoxia compared with normoxia",[9],stronger under hypoxia than normoxia
COc1ccc(C2CC(c3ccc4ccccc4c3)=NN2C2=NC(=O)/C(=C3/C(=O)Nc4ccc(C(F)(F)F)cc43)S2)cc1 (stereo not drawn) [EMAC4009],effect on viability of non-cancerous cells (human fibroblasts),[4],significantly reduce the viability of non-cancerous cells
same,reduction of viability compared to sunitinib,[5],statistically significantly stronger reduced
same,reduction of cell viability,[5],90%
COc1ccc(C2CC(c3cccs3)=NN2C2=NC(=O)/C(=C3/C(=O)Nc4ccc(I)cc43)S2)cc1 (stereo not drawn) [EMAC4017],reduction of viability compared to sunitinib,[5],statistically significantly stronger reduced
same,reduction of cell viability,[5],90%
same,"MIA PaCa-2 cell colony growth, hypoxia compared with normoxia",[6],stronger effect on the MIA PaCa-2 cell colony growth under hypoxia than normoxia
same,MIA PaCa-2 cell colony formation,[6]; hypoxia,significantly reduced the MIA PaCa-2 cell colony formation
same,MIA PaCa-2 colony number compared to sunitinib,"[6]; lower concentration (10% of EC50), hypoxia",stronger than sunitinib
same,"inhibition of migration, hypoxia compared with normoxia",[8],less than under normoxia
same,"inhibition of migration, hypoxia compared with normoxia",[9],stronger under hypoxia than normoxia
COc1cc2ncnc(Nc3ccc(F)c(Cl)c3)c2cc1OCCCN1CCOCC1 [Gefitinib],reduction of viability of PANC-1 cells,[10],78%
"CCN(CC)CCNC(=O)c1c(C)[nH]c(/C=C2\C(=O)Nc3ccc(F)cc32)c1C [sunitinib, Sunitinib malate]",EC50,[2]; [12],3500 ± 300 nM
same,EC50,"[2]; MIA PaCa-2, normoxia",2670 ± 210 nM
same,decrease of PANC-1 cell viability,[3]; 3.5 μM,up to 50%
same,EC50,"[3]; PANC-1, hypoxia (100 µM CoCl2)",3730 ± 210 nM
same,EC50,"[3]; PANC-1, normoxia",3530 ± 210 nM
same,"activity on cell viability, hypoxia compared with normoxia",[5],more active under normoxia than hypoxia conditions
same,"activity on cell viability, comparison between cell lines",[5],inhibited more efficiently the cell viability of the MIA PaCa-2 cell line
same,MIA PaCa-2 cell colony formation,"[6]; 90% of EC50, normoxia",statistically significantly inhibited
same,number and area of colonies,[6],significantly reduced the number and area of colonies
same,number and area of colonies,[7],significantly reduced the number and area of colonies
same,"inhibition of migration, hypoxia compared with normoxia",[8],more under hypoxic conditions
same,cell migration,"[8]; MIA PaCa-2, 10 and 90% of EC50, normoxia and hypoxia (except lower concentration under normoxia)",statistically significantly inhibited cell migration
same,"inhibition of migration, hypoxia compared with normoxia",[9],more under hypoxic conditions
same,'wound' area compared to the control,[9]; 24 h,no difference
same,'wound' area compared to the control,[9]; 48 h and 72 h,significantly larger
same,cell migration,"[9]; PANC-1, 10 and 90% of EC50, normoxia and hypoxia",statistically significantly inhibited cell migration
same,'wound' area,"[9]; PANC-1 monolayer, hypoxia, after 72 h",68.81 ± 5.24%
same,change in 'wound' area compared to the control,[11],did not establish a significant difference
